The target in assay [1] is Epithelial discoidin domain-containing receptor 1 (Homo sapiens, UniProt Q08345).
Assay [2] has as its target Cyclin-dependent kinase 3 (Homo sapiens, UniProt Q00526).
Assay [3] has as its target T1, Acyl-CoA dehydrogenase family member 11 (Homo sapiens, UniProt Q709F0).
T1 sequence (Q709F0 whole entry): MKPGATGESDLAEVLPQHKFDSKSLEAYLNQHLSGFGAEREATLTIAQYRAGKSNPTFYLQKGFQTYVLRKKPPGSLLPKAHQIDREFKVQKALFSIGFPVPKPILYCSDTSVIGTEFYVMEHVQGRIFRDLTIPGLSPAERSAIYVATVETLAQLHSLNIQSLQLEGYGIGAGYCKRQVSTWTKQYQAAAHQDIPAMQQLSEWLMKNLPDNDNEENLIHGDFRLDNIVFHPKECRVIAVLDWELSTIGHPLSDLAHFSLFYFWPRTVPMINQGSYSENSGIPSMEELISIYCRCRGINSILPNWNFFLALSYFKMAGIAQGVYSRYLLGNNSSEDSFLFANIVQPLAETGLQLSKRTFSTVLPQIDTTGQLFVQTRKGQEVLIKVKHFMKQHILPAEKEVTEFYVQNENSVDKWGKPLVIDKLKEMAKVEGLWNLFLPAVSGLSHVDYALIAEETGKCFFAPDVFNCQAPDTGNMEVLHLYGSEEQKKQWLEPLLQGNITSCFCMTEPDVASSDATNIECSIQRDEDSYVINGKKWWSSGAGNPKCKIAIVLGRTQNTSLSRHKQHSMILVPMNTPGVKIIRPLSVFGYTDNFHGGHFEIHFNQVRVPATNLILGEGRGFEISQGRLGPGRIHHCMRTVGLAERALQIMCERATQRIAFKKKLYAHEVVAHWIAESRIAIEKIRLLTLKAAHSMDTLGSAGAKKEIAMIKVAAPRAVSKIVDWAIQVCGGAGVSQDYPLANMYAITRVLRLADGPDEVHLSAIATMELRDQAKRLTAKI

Assay [4] deals with T2, Interleukin-1 receptor-associated kinase 3 (Homo sapiens, UniProt Q9Y616).
T2 sequence (Q9Y616 whole entry): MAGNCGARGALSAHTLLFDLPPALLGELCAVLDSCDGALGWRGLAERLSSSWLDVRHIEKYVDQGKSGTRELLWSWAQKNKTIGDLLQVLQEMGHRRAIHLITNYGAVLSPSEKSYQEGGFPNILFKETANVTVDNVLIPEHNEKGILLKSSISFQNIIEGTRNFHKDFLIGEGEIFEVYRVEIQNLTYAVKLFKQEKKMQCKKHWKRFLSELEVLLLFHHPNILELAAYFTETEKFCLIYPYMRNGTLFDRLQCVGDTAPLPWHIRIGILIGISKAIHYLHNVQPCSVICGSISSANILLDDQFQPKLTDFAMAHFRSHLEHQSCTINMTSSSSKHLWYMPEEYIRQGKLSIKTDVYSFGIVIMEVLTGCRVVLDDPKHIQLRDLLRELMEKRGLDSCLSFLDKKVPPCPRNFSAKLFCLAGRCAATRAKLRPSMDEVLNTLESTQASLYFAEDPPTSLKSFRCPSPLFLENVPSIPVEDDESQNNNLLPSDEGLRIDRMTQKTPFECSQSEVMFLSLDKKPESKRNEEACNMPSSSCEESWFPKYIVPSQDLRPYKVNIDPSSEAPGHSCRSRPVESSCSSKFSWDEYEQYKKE

Assay [5] deals with Serine/threonine-protein kinase SIK2 (Homo sapiens, UniProt Q9H0K1).
The target in assay [6] is Bone morphogenetic protein receptor type-1B (Homo sapiens, UniProt O00238).
The target in assay [7] is LIM domain kinase 1 (Homo sapiens, UniProt P53667).
The target of assay [8] is Serine/threonine-protein kinase MRCK alpha (Homo sapiens, UniProt Q5VT25).
Assay [9] concerns the target T3, Activin receptor type-1B (Homo sapiens, UniProt P36896).
T3 sequence (P36896 whole entry): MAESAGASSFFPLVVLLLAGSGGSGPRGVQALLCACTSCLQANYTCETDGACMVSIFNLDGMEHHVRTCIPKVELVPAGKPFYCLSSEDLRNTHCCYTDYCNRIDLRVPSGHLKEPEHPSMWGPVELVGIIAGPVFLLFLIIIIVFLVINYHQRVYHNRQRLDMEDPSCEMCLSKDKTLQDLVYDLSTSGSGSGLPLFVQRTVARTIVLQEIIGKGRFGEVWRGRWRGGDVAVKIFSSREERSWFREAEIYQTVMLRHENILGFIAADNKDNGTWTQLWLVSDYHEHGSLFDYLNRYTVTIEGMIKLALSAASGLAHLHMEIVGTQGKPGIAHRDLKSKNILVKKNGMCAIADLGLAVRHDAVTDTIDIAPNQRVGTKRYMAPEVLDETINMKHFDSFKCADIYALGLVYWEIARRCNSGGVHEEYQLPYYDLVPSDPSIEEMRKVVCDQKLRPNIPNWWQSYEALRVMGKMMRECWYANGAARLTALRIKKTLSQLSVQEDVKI

Assay [10] concerns the target Cyclin-dependent kinase 7 (Homo sapiens, UniProt P50613).
The target of assay [11] is Casein kinase I isoform gamma-1 (Homo sapiens, UniProt Q9HCP0).

Kd data for 18 compounds are collected here from ChEMBL document CHEMBL3991601, “The target landscape of clinical kinase drugs” (Science, 2017).

SMILES strings stand for the structures. Activity calls are given as the source filed them. Cut-off read from the data, not from the text of the source, for most assays here: actives have a measured Kd and inactives only a lower limit. Where only a bound is given, the exact number is not on record here.

By Kd is commonly meant the equilibrium constant for the complex coming apart.
Note: in the data inactive means no Kd found up to 30 µM.

Serine/threonine-protein kinase MRCK alpha, sequence (Q5VT25 whole entry): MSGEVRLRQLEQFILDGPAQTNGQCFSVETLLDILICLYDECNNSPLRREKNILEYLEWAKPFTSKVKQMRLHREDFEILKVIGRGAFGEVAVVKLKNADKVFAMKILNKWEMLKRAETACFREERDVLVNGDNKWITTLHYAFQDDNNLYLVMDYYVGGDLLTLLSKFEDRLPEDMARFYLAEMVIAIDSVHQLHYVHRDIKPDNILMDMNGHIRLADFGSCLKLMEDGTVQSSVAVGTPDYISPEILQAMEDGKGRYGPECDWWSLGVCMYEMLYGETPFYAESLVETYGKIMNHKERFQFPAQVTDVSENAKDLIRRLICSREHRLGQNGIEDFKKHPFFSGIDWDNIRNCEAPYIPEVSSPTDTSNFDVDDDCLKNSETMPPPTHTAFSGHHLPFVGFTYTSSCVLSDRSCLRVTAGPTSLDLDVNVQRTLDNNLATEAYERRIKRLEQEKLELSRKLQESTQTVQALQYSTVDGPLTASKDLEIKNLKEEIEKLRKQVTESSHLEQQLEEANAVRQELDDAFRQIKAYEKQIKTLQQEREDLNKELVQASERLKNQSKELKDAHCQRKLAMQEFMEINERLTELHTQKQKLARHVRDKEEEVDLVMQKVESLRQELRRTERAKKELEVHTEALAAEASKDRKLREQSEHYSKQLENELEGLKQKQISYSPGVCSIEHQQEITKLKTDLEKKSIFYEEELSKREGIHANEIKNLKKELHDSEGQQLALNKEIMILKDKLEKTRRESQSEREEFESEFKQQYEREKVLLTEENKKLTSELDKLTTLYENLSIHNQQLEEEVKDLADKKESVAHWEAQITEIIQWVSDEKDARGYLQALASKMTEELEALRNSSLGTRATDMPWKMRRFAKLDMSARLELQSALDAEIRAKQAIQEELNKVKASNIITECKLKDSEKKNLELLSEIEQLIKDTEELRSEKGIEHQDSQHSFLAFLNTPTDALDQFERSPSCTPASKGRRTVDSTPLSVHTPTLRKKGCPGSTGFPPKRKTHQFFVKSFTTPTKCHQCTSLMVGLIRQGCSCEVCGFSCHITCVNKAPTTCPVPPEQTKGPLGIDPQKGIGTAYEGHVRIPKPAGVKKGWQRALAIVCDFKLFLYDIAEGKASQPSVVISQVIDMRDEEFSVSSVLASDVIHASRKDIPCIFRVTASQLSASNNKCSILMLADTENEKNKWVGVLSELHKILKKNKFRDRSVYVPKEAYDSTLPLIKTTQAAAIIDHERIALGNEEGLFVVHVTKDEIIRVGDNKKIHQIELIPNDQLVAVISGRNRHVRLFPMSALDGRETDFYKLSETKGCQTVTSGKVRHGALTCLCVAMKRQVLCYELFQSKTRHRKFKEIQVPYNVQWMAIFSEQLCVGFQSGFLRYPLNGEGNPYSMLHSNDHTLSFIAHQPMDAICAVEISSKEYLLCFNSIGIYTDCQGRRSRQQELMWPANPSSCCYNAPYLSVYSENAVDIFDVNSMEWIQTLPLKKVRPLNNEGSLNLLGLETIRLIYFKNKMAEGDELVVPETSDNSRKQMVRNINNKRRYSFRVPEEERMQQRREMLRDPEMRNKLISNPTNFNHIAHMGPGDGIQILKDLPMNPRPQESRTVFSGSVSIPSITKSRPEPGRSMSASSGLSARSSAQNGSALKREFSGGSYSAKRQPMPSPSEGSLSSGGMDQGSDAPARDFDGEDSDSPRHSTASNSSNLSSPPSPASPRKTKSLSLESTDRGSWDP
Cyclin-dependent kinase 3, sequence (Q00526 whole entry): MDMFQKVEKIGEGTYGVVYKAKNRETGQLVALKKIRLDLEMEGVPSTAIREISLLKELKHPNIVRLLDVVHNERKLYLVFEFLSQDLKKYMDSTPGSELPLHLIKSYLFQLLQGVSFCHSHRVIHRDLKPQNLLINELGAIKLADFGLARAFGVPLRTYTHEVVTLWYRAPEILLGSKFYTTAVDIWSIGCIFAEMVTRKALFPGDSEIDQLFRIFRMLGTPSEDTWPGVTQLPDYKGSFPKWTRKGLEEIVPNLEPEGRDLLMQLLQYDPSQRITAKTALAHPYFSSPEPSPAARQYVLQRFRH
Bone morphogenetic protein receptor type-1B, sequence (O00238 whole entry, the tested form may be a part): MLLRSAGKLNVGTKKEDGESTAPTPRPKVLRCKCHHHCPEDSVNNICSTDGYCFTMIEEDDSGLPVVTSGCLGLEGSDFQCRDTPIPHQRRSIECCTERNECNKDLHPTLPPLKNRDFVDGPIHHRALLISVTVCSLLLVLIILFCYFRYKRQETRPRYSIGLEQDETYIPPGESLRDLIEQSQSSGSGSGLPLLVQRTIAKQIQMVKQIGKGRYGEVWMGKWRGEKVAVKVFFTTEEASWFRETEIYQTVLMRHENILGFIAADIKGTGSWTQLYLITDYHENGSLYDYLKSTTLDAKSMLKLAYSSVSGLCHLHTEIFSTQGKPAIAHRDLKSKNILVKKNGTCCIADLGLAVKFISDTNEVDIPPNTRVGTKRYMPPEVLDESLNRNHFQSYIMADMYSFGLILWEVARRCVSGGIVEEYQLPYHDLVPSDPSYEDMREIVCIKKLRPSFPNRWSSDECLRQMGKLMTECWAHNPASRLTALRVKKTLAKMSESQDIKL
Serine/threonine-protein kinase SIK2, sequence (Q9H0K1 whole entry): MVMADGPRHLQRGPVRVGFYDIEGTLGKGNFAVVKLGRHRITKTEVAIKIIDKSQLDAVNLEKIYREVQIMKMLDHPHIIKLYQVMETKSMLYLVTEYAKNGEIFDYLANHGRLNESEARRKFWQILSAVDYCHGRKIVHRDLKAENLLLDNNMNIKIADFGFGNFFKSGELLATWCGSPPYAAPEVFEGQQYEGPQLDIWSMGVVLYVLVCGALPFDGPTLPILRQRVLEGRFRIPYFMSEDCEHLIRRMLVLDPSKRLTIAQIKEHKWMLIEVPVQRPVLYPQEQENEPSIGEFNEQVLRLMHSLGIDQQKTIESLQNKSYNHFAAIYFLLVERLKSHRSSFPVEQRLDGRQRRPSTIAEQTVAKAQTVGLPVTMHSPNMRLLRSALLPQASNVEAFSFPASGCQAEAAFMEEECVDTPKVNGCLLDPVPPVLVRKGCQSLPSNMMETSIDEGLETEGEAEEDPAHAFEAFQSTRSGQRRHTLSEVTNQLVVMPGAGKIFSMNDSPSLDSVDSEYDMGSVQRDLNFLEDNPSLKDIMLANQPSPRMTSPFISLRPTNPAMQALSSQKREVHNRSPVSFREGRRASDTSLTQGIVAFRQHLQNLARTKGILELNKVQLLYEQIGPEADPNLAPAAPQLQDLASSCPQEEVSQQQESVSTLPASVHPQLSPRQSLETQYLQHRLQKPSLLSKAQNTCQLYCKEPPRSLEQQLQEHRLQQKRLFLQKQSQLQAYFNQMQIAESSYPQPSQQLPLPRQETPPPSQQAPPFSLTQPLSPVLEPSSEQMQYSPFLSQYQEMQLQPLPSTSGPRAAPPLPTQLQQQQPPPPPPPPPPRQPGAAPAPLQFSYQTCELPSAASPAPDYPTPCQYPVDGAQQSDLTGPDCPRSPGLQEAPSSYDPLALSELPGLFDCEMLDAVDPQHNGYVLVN
LIM domain kinase 1, sequence (P53667 whole entry, the tested form may be a part): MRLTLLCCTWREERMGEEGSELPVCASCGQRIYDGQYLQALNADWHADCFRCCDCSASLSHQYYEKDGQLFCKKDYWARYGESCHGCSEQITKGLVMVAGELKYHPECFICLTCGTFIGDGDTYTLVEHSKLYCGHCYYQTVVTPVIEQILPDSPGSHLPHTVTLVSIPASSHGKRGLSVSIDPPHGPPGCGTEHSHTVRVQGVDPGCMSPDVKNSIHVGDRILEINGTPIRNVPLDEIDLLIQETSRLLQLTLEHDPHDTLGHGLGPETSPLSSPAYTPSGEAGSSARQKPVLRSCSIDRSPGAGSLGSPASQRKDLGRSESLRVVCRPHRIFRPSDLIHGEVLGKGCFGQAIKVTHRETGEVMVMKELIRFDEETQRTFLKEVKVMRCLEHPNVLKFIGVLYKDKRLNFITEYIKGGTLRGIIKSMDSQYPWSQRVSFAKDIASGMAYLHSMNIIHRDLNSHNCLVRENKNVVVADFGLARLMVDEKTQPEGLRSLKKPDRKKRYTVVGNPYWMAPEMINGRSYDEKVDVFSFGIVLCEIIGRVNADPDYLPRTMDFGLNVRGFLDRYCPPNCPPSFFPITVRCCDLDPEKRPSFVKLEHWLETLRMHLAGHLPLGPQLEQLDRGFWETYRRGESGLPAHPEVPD
Cyclin-dependent kinase 7, sequence (P50613 whole entry, canonical isoform): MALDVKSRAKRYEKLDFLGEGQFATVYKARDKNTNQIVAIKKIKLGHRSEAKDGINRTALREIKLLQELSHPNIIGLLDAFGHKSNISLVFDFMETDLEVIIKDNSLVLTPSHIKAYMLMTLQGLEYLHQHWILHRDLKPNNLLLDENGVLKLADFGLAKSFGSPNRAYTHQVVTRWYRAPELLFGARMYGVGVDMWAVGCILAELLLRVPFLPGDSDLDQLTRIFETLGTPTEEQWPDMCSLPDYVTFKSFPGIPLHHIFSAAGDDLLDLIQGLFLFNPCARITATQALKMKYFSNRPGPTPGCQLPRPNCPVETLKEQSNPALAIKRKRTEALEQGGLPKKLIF
Casein kinase I isoform gamma-1, sequence (Q9HCP0 whole entry, canonical isoform): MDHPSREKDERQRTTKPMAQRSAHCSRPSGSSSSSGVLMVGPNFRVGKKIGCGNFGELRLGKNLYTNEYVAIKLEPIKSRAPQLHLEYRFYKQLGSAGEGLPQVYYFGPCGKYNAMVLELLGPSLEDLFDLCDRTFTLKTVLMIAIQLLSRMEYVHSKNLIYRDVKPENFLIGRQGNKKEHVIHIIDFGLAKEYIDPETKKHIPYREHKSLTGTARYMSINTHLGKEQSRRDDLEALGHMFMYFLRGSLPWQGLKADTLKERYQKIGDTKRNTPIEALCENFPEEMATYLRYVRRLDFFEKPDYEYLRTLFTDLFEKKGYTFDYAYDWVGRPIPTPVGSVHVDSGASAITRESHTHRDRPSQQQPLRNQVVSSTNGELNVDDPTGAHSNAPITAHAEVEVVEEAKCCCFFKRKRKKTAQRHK

With `S=C(NCc1ccc2c(c1)OCO2)N1CCN(c2ncnc3c2oc2ccccc23)CC1` [AMUVATINIB], the Kd in assay [1], in assay [2], in assay [3], in assay [4], in assay [5] and in assay [6] was > 30 µM (inactive) each time. Also, the Kd in assay [7], in assay [8], in [9] and in assay [10] was > 30 µM (inactive) throughout.

As for `Cn1c(=O)n(-c2ccc(C(C)(C)C#N)cc2)c2c3cc(-c4cnc5ccccc5c4)ccc3ncc21` [DACTOLISIB], the Kd in assay [1], in assay [2], in assay [3], in [4], in assay [5] and in [11] was > 30 µM (inactive) throughout. For the same compound, the Kd in assay [8] and in assay [9] was > 30 µM (inactive) throughout.

In the case of `C[C@@]1(C(=O)Nc2ccc(F)nc2)CCCN1c1nc(Nc2cc(C3CC3)n[nH]2)c2cccn2n1` [BMS-754807], the Kd in assay [3] is > 30 µM (inactive).

For the compound `CNC(=O)c1ccc(Nc2ncc(C(F)(F)F)c(NCc3nccnc3N(C)S(C)(=O)=O)n2)cc1` [DEFACTINIB], the Kd in assay [1], in [2], in assay [3], in [4], in assay [5] and in assay [6] was > 30 µM (inactive) in each case. Moreover, the Kd in assay [7], in assay [11], in assay [8] and in assay [9] was > 30 µM (inactive) in each case.

For `CN(c1ncccc1CNc1nc(Nc2ccc3c(c2)CC(=O)N3)ncc1C(F)(F)F)S(C)(=O)=O` [PF-00562271], the Kd in assay [1] is > 30 µM (inactive); in [2], 3.43 µM (active); in assay [3] it was > 30 µM (inactive); in [4], > 30 µM (inactive); in [6], > 30 µM (inactive); in [9], > 30 µM (inactive).

With `N#CCNC(=O)c1ccc(-c2ccnc(Nc3ccc(N4CCOCC4)cc3)n2)cc1` [MOMELOTINIB], the Kd in assay [1] was > 30 µM (inactive); in [3], > 30 µM (inactive); in assay [4] it was > 30 µM (inactive); in assay [5] it was 0.79 µM (active); in assay [6] it was > 30 µM (inactive); in assay [7], > 30 µM (inactive). For the same compound, the Kd in assay [9] and in [10] was > 30 µM (inactive) each time.

Regarding `COc1cc2c(Oc3ccc4[nH]c(C)cc4c3F)ncnc2cc1OCCCN1CCCC1` [CEDIRANIB], the Kd in assay [3] is > 30 µM (inactive).

As for `CCN1CCN(Cc2ccc(Nc3ncc(F)c(-c4cc(F)c5nc(C)n(C(C)C)c5c4)n3)nc2)CC1` [ABEMACICLIB], the Kd in assay [1], in assay [3], in assay [4], in assay [5], in assay [6] and in [7] was > 30 µM (inactive) throughout. Further, the Kd in [11], in assay [8] and in assay [9] was > 30 µM (inactive) in each case.

For the compound `Cn1cnc2c(F)c(Nc3ccc(Br)cc3Cl)c(C(=O)NOCCO)cc21` [SELUMETINIB], the Kd in [3] is > 30 µM (inactive).

Regarding `COc1cc2c(N3CCN(C(=O)Nc4ccc(OC(C)C)cc4)CC3)ncnc2cc1OCCCN1CCCCC1` [TANDUTINIB], the Kd in assay [3] is > 30 µM (inactive).

On to `CCN(CCCOc1ccc2c(Nc3cc(CC(=O)Nc4cccc(F)c4)n[nH]3)ncnc2c1)CCOP(=O)(O)O` [BARASERTIB], for which the Kd in assay [1], in assay [2], in assay [3], in assay [4], in [6] and in assay [11] was > 30 µM (inactive) each time. For the same compound, the Kd in assay [8] and in assay [9] was > 30 µM (inactive) each time.

In the case of `CC1(C)CNc2cc(NC(=O)c3cccnc3NCc3ccncc3)ccc21` [MOTESANIB], in assay [3], the Kd is > 30 µM (inactive).

`C=CCn1c(=O)c2cnc(Nc3ccc(N4CCN(C)CC4)cc3)nc2n1-c1cccc(C(C)(C)O)n1` [ADAVOSERTIB]: the Kd in assay [1], in assay [2], in assay [3], in assay [4], in [5] and in [6] was > 30 µM (inactive) in each case. In addition, the Kd in [11], in [8] and in [9] was > 30 µM (inactive) throughout.

`CN(C)C/C=C/C(=O)Nc1cc2c(Nc3ccc(F)c(Cl)c3)ncnc2cc1O[C@H]1CCOC1` [AFATINIB]: in assay [3], the Kd is > 30 µM (inactive).

Take `O=S(=O)(c1cccc2cnccc12)N1CCCNCC1` [FASUDIL]: the Kd in assay [1], in [2], in [3], in [5], in [11] and in assay [9] was > 30 µM (inactive) throughout.

On to `C[C@]1(O)C[C@@H](c2nc(-c3ccc4ccc(-c5ccccc5)nc4c3)c3c(N)nccn32)C1` [LINSITINIB], for which the Kd in [1], in assay [2], in [3], in assay [4], in assay [5] and in assay [6] was > 30 µM (inactive) in each case. Besides, the Kd in assay [7], in [9] and in assay [10] was > 30 µM (inactive) in each case.

On to `CC(C)CC(=O)Nc1[nH]nc2c1CN(C(=O)C1CCN(C)CC1)C2(C)C` [PHA-793887], for which the Kd in [1] is > 30 µM (inactive); in assay [2] it was 0.008 µM (active); in assay [3], > 30 µM (inactive); in [4], > 30 µM (inactive); in assay [5], > 30 µM (inactive); in [6], > 30 µM (inactive). For the same compound, the Kd in assay [7] is > 30 µM (inactive); in [8], > 30 µM (inactive); in [9] it was > 30 µM (inactive); in assay [10], 0.008 µM (active).

As to `CC1(COc2ccc3c(c2)ncn3-c2ccc3cccc(N4CCC(N)CC4)c3n2)COC1` [CRENOLANIB], the Kd in assay [1] was > 30 µM (inactive); in assay [2], 1.07 µM (active); in [3] it was > 30 µM (inactive); in [4], 1.51 µM (active); in [6], > 30 µM (inactive); in [7] it was > 30 µM (inactive). Besides, the Kd in assay [11], in [8] and in assay [9] was > 30 µM (inactive) throughout.
